“And” between values parts separate entries of the source, which are not always exact repeats. Equal entries are not always repeated.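 Cultured in 96-well plates, cells were exposed to test compound for 48 hours across five concentrations. At the GI50, growth is halved. TGI: total growth inhibition.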
Columns and labels:
Assay in all cases: DTP human tumour cell line panel, 48 h
HOP-62 NSCLC = tested on: HOP-62 NSCLC
NCI/ADR-RES ovarian = tested on: NCI/ADR-RES ovarian
HCT-116 colon = tested on: HCT-116 colon
A498 renal = tested on: A498 renal
MOLT-4 leukemia = tested on: MOLT-4 leukemia
SK-MEL-5 melanoma = tested on: SK-MEL-5 melanoma
HCT-15 colon = tested on: HCT-15 colon
MCF7 breast = tested on: MCF7 breast
ACHN renal = tested on: ACHN renal
COLO 205 colon = tested on: COLO 205 colon

| Compound | GI50 (HOP-62 NSCLC) | TGI (HOP-62 NSCLC) | GI50 (NCI/ADR-RES ovarian) | TGI (NCI/ADR-RES ovarian) | GI50 (HCT-116 colon) [µM] | TGI (HCT-116 colon) | GI50 (A498 renal) | TGI (A498 renal) | GI50 (MOLT-4 leukemia) | TGI (MOLT-4 leukemia) | GI50 (SK-MEL-5 melanoma) [µM] | TGI (SK-MEL-5 melanoma) | GI50 (HCT-15 colon) | TGI (HCT-15 colon) | GI50 (MCF7 breast) [µM] | TGI (MCF7 breast) | GI50 (ACHN renal) | TGI (ACHN renal) | GI50 (COLO 205 colon) [µM] | TGI (COLO 205 colon) [µM] |
| --- | --- | --- | --- | --- | --- | --- | --- | --- | --- | --- | --- | --- | --- | --- | --- | --- | --- | --- | --- | --- |
| COc1cc2c3c(n(CCCCOC(=O)C(Cl)(Cl)Cl)c(=O)c2cc1OC)-c1cc2c(cc1C3=O)OCO2 | 29.3 µM | > 100 µM | 82.7 µM | > 100 µM | 17 | 34.2 µM | > 100 µM | > 100 µM | 5.67 µM | > 100 µM | > 100 | > 100 µM | > 100 µM | > 100 µM | 11.5 | > 100 µM | 14.2 µM | 59.5 µM | > 100 | > 100 |
| CON(C)C(=O)N1N=C(c2cc(F)ccc2F)SC1(CCCN)c1ccccc1 (centres undefined) | 0.0545 µM and < 0.01 µM | 18.4 µM and 15.7 µM | 0.544 µM and 0.122 µM | 5.34 µM and 2.87 µM | < 0.01 | 16.1 µM and 15.2 µM | 0.0452 µM and < 0.01 µM | 13.5 µM and 13.4 µM | 0.0547 µM and < 0.01 µM | 20 µM and 18.2 µM | < 0.01 | 12.2 µM and 12.6 µM | 0.0485 µM and < 0.01 µM | 15.9 µM and 17.6 µM | < 0.01 | 11.6 µM and 11.5 µM | 7.79 µM and 4.91 µM | 22.5 µM and 21.8 µM | < 0.01 |  |
| O=C(/C=C\n1cnc(-c2cc(C(F)(F)F)cc(C(F)(F)F)c2)n1)NNc1cnccn1 | 0.289 µM | 15.7 µM | 0.0933 µM | 27.1 µM | 0.0821 | 12.4 µM | 0.0216 µM | 0.338 µM | 0.0312 µM | > 100 µM | 0.151 | 2.22 µM | 0.098 µM | 13.4 µM | 0.0329 | 11.5 µM | 0.113 µM | 13 µM | 0.0515 | 5.28 |
| O=C1OC(c2ccco2)=N/C1=C\c1cccc([N+](=O)[O-])c1 |  | > 100 µM |  |  |  | > 100 µM |  | > 100 µM |  | > 100 µM |  | > 100 µM |  | > 100 µM |  | > 100 µM |  | > 100 µM |  | > 100 |
| COc1ccc(/C(Cl)=C(\C=O)c2ccc([N+](=O)[O-])cc2)cc1 |  | 52.8 µM |  |  |  |  |  | 74.1 µM |  | 7.24 µM |  | 39.9 µM |  | > 70.3 µM |  |  |  | 70.5 µM |  | 40.4 |
| COc1ccc2nc3cc(Cl)ccc3c(NCCN)c2c1 | 1.58 µM | 3.03 µM |  |  |  |  | 11.7 µM | 23.9 µM | 1.25 µM | 3.68 µM |  |  | 1.87 µM | 3.9 µM |  |  | 1.58 µM | 3.17 µM | 1.53 | 3.14 |
| Cc1ccc2[nH]c(C(=O)NN3C(=O)C(C)SC34CCCC(C)C4)c(-c3ccccc3)c2c1 (centres undefined) | > 100 µM | > 100 µM |  |  | 75.7 | > 100 µM | > 100 µM | > 100 µM | 19.3 µM | > 100 µM | > 100 | > 100 µM | 87 µM | > 100 µM | 32.7 | > 100 µM | > 100 µM | > 100 µM | 94.1 | > 100 |
| CN(C)C(c1ccccc1)C(O)c1ccccc1 (centres undefined) |  | > 100 µM |  |  |  |  |  | > 100 µM |  | > 100 µM |  |  |  | > 100 µM |  |  |  | > 100 µM |  | > 100 |
| COc1cc2c(c(OC)c1OC)-c1c(cc3c(c1OC)OCO3)C1OC2C(C)C1C (centres undefined) (tested in a mixture with another compound) |  | > 100 µM |  |  |  | > 100 µM |  | > 100 µM |  | 70.4 µM |  | > 100 µM |  | > 100 µM |  | > 100 µM |  | > 100 µM |  | > 100 |
| COC1=CC2(C=CC1=O)c1cc(OC)c(OC)cc1CCN2C(=O)c1ccccc1 (centres undefined) |  |  |  |  |  | > 100 µM |  | > 100 µM |  | > 100 µM |  | > 100 µM |  | > 100 µM |  |  |  | > 100 µM |  | > 100 |
| Cc1ccc(-c2cc(=O)c3cc(C)c(C)c(C(=O)O)c3o2)cc1C |  | > 100 µM |  |  |  | > 100 µM |  |  |  | > 100 µM |  | > 100 µM |  | > 100 µM |  |  |  | > 100 µM |  | > 100 |
| O=C(/C=C/c1c(O)ccc2ccccc12)c1ccccc1 |  | > 100 µM |  |  |  | > 100 µM |  | > 100 µM |  | > 100 µM |  | > 100 µM |  | > 100 µM |  |  |  | > 100 µM |  | > 100 |
| Fc1ccc(C2SCc3nc4ccccc4n32)cc1Cl (centres undefined) |  | 55.9 µM |  |  |  |  |  | > 100 µM |  | 69.9 µM |  |  |  |  |  |  |  | > 100 µM |  | 28.6 |
| Cc1[nH]c2ccccc2c1C1Cc2ccccc2N1C(=O)/C(Cl)=C/c1ccccc1 (centres undefined) |  | > 100 µM |  |  |  | > 100 µM |  | > 100 µM |  | > 100 µM |  | > 100 µM |  | > 100 µM |  |  |  | > 100 µM |  | > 100 |
| CC(C)c1ccc(C(c2ccc(OCC(=O)O)cc2)c2ccc(C(C)C)cc(=O)c2O)c(O)c(=O)c1 |  | 26.2 µM |  |  |  | 14.1 µM |  | 69.5 µM |  | 30.7 µM |  | 9.14 µM |  | 22.9 µM |  |  |  | 28 µM |  | > 100 |
| CCc1ccc(Nc2ccc([N+](=O)[O-])cc2[N+](=O)[O-])cc1 |  | > 100 µM |  |  |  | > 100 µM |  | 66.9 µM |  | > 100 µM |  | > 100 µM |  | > 100 µM |  |  |  | > 100 µM |  |  |
| N#CCc1ccc(C(C#N)/C(CCCC(=O)Nc2cccc([N+](=O)[O-])c2)=N/NC(N)=S)cc1 (centres undefined) |  | > 100 µM |  |  |  | > 100 µM |  | > 100 µM |  | > 100 µM |  | > 100 µM |  | > 100 µM |  |  |  | > 100 µM |  | > 100 |
| CCCCCCC(=O)C/C(=N/NC(N)=S)C(=O)NC1C2CC3CC(C2)CC1C3 (centres undefined) |  | > 100 µM |  |  |  | > 100 µM |  |  |  | > 100 µM |  | > 100 µM |  |  |  |  |  | > 100 µM |  | > 100 |
| COc1cccc(N2C(=O)[C@H]3CC(C)c4c([nH]c5ccccc45)[C@H]3C2=O)c1 (some centres undefined) |  | 42.5 µM |  |  |  |  |  | > 100 µM |  | > 100 µM |  | > 100 µM |  | > 100 µM |  |  |  |  |  | > 100 |
| COC(C(O)c1ccc2c(c1)OCO2)P(=O)(c1ccccc1)c1ccccc1 (centres undefined) |  | > 100 µM |  |  |  | > 100 µM |  | > 100 µM |  | > 100 µM |  | > 100 µM |  |  |  |  |  | > 100 µM |  |  |
| CC1=N/C(=C\c2cccc([N+](=O)[O-])c2)C(=O)O1 |  | > 100 µM |  |  |  | > 100 µM |  | > 100 µM |  | > 100 µM |  | > 100 µM |  | > 100 µM |  |  |  | > 100 µM |  | > 100 |

From PubChem BioAssay (NCI)
